Data taken from patent publication US11535643B2, “Macrolides with modified desosamine sugars and uses thereof” (President and Fellows of Harvard College, priority 2015, dated 2022).

What was measured:
Format in all cases: cell-based
E. coli = experiment: Broth dilution MIC determination (CLSI) against E. coli strains
From the text: (§1) Minimum inhibitory concentrations (MICs) for macrolides described herein have been determined for unique strains of S. aureus, S. pneumoniae, S. pyogenes, E. faecalis, E. coli, A. baumannii, K. pneumoniae, P. aeruginosa, and H. influenzae, including several multidrug-resistant strains, with a special focus on macrolide resistant mechanisms. Azithromycin and solithromycin were included as control compounds. CLSI standard procedures for broth dilution MIC determination were used. Data for exemplary compounds described herein is shown in Tables M1-M7 and in Tables N1-N4.

S. pyogenes = experiment: Broth dilution MIC determination (CLSI) against S. pyogenes strains
From the text: as §1

S. aureus = experiment: Broth dilution MIC determination (CLSI) against S. aureus strains
From the text: as §1

K. pneumoniae = experiment: Broth dilution MIC determination (CLSI) against K. pneumoniae strains
From the text: as §1, with “used.” for “used. Data for exemplary compounds described herein is shown in Tables M1-M7 and in Tables N1-N4.”

P. aeruginosa = experiment: Broth dilution MIC determination (CLSI) against P. aeruginosa strains
From the text: as §1

E. faecalis = experiment: Broth dilution MIC determination (CLSI) against E. faecalis strains
From the text: as §1

S. pneumoniae = experiment: Broth dilution MIC determination (CLSI) against S. pneumoniae strains
From the text: as §1

A. baumannii = experiment: Broth dilution MIC determination (CLSI) against A. baumannii strains
From the text: as §1

[1] = E. coli ATCC25922, strain MP-4 (Table N2)
[2] = E. coli ATCC25922:tolC, strain MP-9 (Table N2)
[3] = E. coli clinical, strain MP541 (Table N2)
[4] = E. coli clinical-cErm, strain MP532 (Table N2)
[5] = S. pyogenes ATCC19615, strain MP-19 (Table N2)
[6] = S. pyogenes mac resistant, strain MP-625 UNT-014 (Table N2)
[7] = S. aureus (MRSA) GISA USA600, strain MP-619 UNT-120 (Table N2)
[8] = S. aureus (MRSA) ST-228 cErm, strain MP-513 (Table N2)
[9] = S. aureus (MRSA) USA100, strain MP-618 UNT-096 (Table N2)
[10] = S. aureus (MRSA) USA300, strain MP-549 (Table N2)
[11] = S. aureus (MRSA) ermA phenotype, strain MP-620 UNT-146 (Table N2)
[12] = S. aureus ATCC29213, strain MP-12 (Table N2)
[13] = S. aureus ATCCBAA-977, strain MP-17 (Table N2)
[14] = K pneumomae ATCC10031, strain MP-14 (Table N2)
[15] = K. pneumoniae clinical, strain MP546 (Table N2)
[16] = K. pneumoniae clinical, strain MP548 (Table N2)
[17] = P. aeruginosa ATCC27853, strain MP-3 (Table N2)
[18] = P. aeruginosa PAO1, strain MP-7 (Table N2)
[19] = P. aeruginosa PAO1:mex, strain MP-8 (Table N2)
[20] = E. faecalis ATCC29212, strain MP-24 (Table N2)
[21] = E. faecalis van resistant, strain UNT-039 (Table N2)
[22] = S. pneumoniae ATCC49619, strain MP-21 (Table N2)
[23] = S. pneumoniae mefA, strain MP-626 UNT-038 (Table N2)
[24] = S. pneumoniae mefA, strain MP-627 UNT-039 (Table N2)
[25] = A. baumannii ATCC19606, strain MP-15 (Table N2)
[26] = A. baumannii clinical, strain MP576 (Table N2)
[27] = A. baumannii clinical, strain MP577 (Table N2)

CCC1OC(=O)C(C)C(=O)C(C)C(OC2OC(C)CC(N3CCOC3CO)C2O)C(C)(OC)CC(C)CNC(C)C2N(CCCCn3cc(-c4cccc(N)c4)nn3)C(=O)OC12C (stereo not drawn) [FSM-120380]
4 µg/mL: MIC (S. pneumoniae; [23]) | MIC (S. pneumoniae; [24])
>64 µg/mL: MIC (E. coli; [1]) | MIC (E. coli; [3]) | MIC (E. coli; [4]) | MIC (S. aureus; [7]) | MIC (S. aureus; [8]) | MIC (S. aureus; [9]) | MIC (S. aureus; [10]) | MIC (S. aureus; [11]) | MIC (S. aureus; [12]) | MIC (S. aureus; [13]) | MIC (K. pneumoniae; [14]) | MIC (K. pneumoniae; [15]) | MIC (K. pneumoniae; [16]) | MIC (P. aeruginosa; [17]) | MIC (P. aeruginosa; [18]) | MIC (P. aeruginosa; [19]) | MIC (E. faecalis; [21]) | MIC (A. baumannii; [25]) | MIC (A. baumannii; [26]) | MIC (A. baumannii; [27])
32 µg/mL: MIC (E. coli; [2]) | MIC (S. pyogenes; [6])
8 µg/mL: MIC (S. pyogenes; [5]) | MIC (S. pneumoniae; [22])
64 µg/mL: MIC (E. faecalis; [20])

C=CCOCC1CC(N(C)C)C(O)C(OC2C(C)C(=O)C(C)C(=O)OC(CC)C3(C)OC(=O)N(CCCCn4cc(-c5cccc(N)c5)nn4)C3C(C)NCC(C)CC2(C)OC)O1 (stereo not drawn) [FSM-120383]
4 µg/mL: MIC E. coli ATCC25922:tolC (E. coli; ATCC25922:tolC, Strain No. MP-9)
32 µg/mL: MIC E. coli ATCC25922 (E. coli; ATCC25922, Strain No. MP-4) | MIC E. coli clinical (E. coli; clinical, Strain No. MP541) | MIC P. aeruginosa ATCC27853 (P. aeruginosa; ATCC27853, Strain No. MP-3) | MIC A. baumannii ATCC19606 (A. baumannii; ATCC19606, Strain No. MP-15)
1 µg/mL: MIC S. pyogenes mac resistant (S. pyogenes; mac resistant, Strain No. MP-625 UNT-014)
0.25 µg/mL: MIC S. pyogenes ATCC19615 (S. pyogenes; ATCC19615, Strain No. MP-19)
>64 µg/mL: MIC E. coli clinical-cErm (E. coli; clinical-cErm, Strain No. MP532) | MIC S. aureus ATCC29213 (S. aureus; ATCC29213, Strain No. MP-12) | MIC S. aureus (MRSA) GISA USA600 (S. aureus; GISA USA600, Strain No. MP-619 UNT-120) | MIC S. aureus (MRSA) ST-228 cErm (S. aureus; ST-228 cErm, Strain No. MP-513) | MIC S. aureus (MRSA) USA100 (S. aureus; USA100, Strain No. MP-618 UNT-096) | MIC S. aureus (MRSA) USA300 (S. aureus; USA300, Strain No. MP-549) | MIC S. aureus (MRSA) ermA phenotype (S. aureus; ermA phenotype, Strain No. MP-620 UNT-146) | MIC K. pneumoniae clinical (K. pneumoniae; Strain No. MP546) | MIC K. pneumoniae clinical (K. pneumoniae; Strain No. MP548) | MIC E. faecalis van resistant (E. faecalis; van resistant, Strain No. UNT-039) | MIC A. baumannii clinical (A. baumannii; Strain No. MP576)
64 µg/mL: MIC S. aureus ATCCBAA-977 (S. aureus; ATCCBAA-977, Strain No. MP-17) | MIC P. aeruginosa PAO1 (P. aeruginosa; PAO1, Strain No. MP-7) | MIC A. baumannii clinical (A. baumannii; Strain No. MP577)
0.5 µg/mL: MIC S. pneumoniae ATCC49619 (S. pneumoniae; ATCC49619, Strain No. MP-21) | MIC S. pneumoniae mefA (S. pneumoniae; Strain No. MP-626 UNT-038) | MIC S. pneumoniae mefA (S. pneumoniae; Strain No. MP-627 UNT-039)
8 µg/mL: MIC K. pneumoniae ATCC10031 (K. pneumoniae; ATCC10031, Strain No. MP-14) | MIC P. aeruginosa PAO1:mex (P. aeruginosa; PAO1:mex, Strain No. MP-8) | MIC E. faecalis ATCC29212 (E. faecalis; ATCC29212, Strain No. MP-24)

CCC1OC(=O)C(C)C(=O)C(C)C(OC2OC(C)CC(NCc3cccnc3)C2O)C(C)(OC)CC(C)CNC(C)C2N(CCCCn3cc(-c4cccc(N)c4)nn3)C(=O)OC12C (stereo not drawn) [FSM-120384]
2 µg/mL: MIC (S. pneumoniae; [22])
>64 µg/mL: MIC (E. coli; [1]) | MIC (E. coli; [3]) | MIC (E. coli; [4]) | MIC (S. aureus; [7]) | MIC (S. aureus; [8]) | MIC (S. aureus; [9]) | MIC (S. aureus; [10]) | MIC (S. aureus; [11]) | MIC (S. aureus; [12]) | MIC (S. aureus; [13]) | MIC (K. pneumoniae; [15]) | MIC (K. pneumoniae; [16]) | MIC (P. aeruginosa; [17]) | MIC (P. aeruginosa; [18]) | MIC (P. aeruginosa; [19]) | MIC (E. faecalis; [21]) | MIC (A. baumannii; [26]) | MIC (A. baumannii; [27])
8 µg/mL: MIC (E. coli; [2])
4 µg/mL: MIC (S. pyogenes; [6])
1 µg/mL: MIC (S. pyogenes; [5]) | MIC (S. pneumoniae; [24])
32 µg/mL: MIC (E. faecalis; [20])
0.5 µg/mL: MIC (S. pneumoniae; [23])
16 µg/mL: MIC (K. pneumoniae; [14])
64 µg/mL: MIC (A. baumannii; [25])
